Source: patent US20260241046A1, “PROSTATE-SPECIFIC MEMBRANE ANTIGEN RECEPTOR-TARGETING RADIOPHARMACEUTICALS AND USES THEREOF” (Nuclidium AG, priority 2024, published 2026)
Entries after “also recorded” stand apart in the source; their conditions may differ.

How the values were obtained:
PSMA-expressing tumors = molecular target: T1, PSMA-expressing tumors (Homo sapiens, UniProt Q04609); test: First-in-human PET/CT study; format: in vivo; conditions: 104 MBq i.v., imaging at 3 hours, patient with metastatic prostate cancer
T1 construct: administered intravenously to a patient with known metastatic prostate cancer; from tissue; host or cells: osseous and hepatic metastases of a patient with metastatic prostate cancer
T1 sequence (Q04609 whole entry): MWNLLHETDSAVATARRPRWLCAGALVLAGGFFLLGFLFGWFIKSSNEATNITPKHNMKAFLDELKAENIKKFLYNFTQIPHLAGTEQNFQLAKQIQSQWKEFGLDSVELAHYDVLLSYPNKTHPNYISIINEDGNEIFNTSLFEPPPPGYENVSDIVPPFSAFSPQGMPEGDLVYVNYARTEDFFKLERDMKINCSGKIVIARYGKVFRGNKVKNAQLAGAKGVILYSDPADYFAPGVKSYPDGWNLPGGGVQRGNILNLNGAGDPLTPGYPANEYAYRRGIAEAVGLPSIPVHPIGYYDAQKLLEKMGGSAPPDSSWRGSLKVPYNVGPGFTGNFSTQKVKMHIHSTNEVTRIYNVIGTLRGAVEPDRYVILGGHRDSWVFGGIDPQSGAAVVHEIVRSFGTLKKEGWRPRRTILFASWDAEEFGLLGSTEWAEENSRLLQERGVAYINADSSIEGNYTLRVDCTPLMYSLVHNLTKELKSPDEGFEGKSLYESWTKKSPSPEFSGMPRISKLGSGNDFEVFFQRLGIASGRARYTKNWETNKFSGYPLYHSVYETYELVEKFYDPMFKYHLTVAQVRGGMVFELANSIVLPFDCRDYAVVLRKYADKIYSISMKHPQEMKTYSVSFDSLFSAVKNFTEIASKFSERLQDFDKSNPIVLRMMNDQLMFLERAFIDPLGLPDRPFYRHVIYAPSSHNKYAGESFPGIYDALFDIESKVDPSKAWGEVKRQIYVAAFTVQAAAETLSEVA
Experimental: A [^61Cu]Cu-NODAGA-PSMA I&T dose of 104 MBq (2.81 mCi) was administered intravenously to a patient with known metastatic prostate cancer. The patient was co-injected with 10 mg furosemide (Lasix®, Sanofi-Aventis, Frankfurt, Germany).
Imaging was performed at 3 hours following radiotracer administration on a Biograph Vision 600 (Siemens, Germany) PET/CT scanner. Images were obtained from the skull to mid-thigh and reconstructed into multiplanar PT, CT, and fused PET/CT images. CT was used for attenuation correction.

[1] = molecular target: T2, PSMA-positive malignant lesions (Homo sapiens, UniProt Q04609); test: Human clinical trial, PET/CT comparison between Pylarify and [^61Cu]Cu-NODAGA-PSMA I&T; format: in vivo
T2 construct: from tissue; host or cells: prostate cancer lesions (bone and nodal metastases, prostate) of eight trial subjects
T2 sequence (Q04609 whole entry): as above
Experimental: This is a phase I, single center, non-randomized trial with 6-10 subjects. Each subject will have biopsy-proven prostate cancer visualized on FDA-approved ^18F-piflufolastat PET/CT performed within 3 weeks of trial recruitment. Each subject will receive a single administration of [^61Cu]Cu-NODAGA-PSMA I&T, followed by PET/CT imaging. Safety of [^61Cu]Cu-NODAGA-PSMA I&T will be evaluated by monitoring for unlikely adverse effects.
Subjects will undergo administration of 10 mL of 100-300 MBq (2.7-8.1 mCi) [^61Cu]Cu-NODAGA-PSMA I&T composition intravenously described in Table 20, followed by PET/CT imaging 60 (+/−10) minutes post radiotracer administration.
• Perform and record vital signs. • Place IV catheter. • Obtain blood for whole blood and plasma radioactivity counts prior to radiotracer administration and at 3-5 time points post radiotracer administration, from the following time ranges • a. 15 minutes (+/−10 minutes) • b. 30 minutes (+/−10 minutes) • c. 60 minutes (+/−15 minutes) • d. 120-240 minutes • e. 240-420 minutes • Administer 100-300 MBq ([…]) of [^61Cu]Cu-NODAGA-PSMA I&T composition intravenously. • Perform and record vital signs and assess for adverse reactions 30-60 minutes and 120-240 minutes post radiotracer administration. • Perform PET/CT imaging at 2 or 3 time points post radiotracer administration, from the following time ranges. • a. 60 minutes (+/−15 minutes) • b. 120-240 minutes • c. 240-420 minutes • Perform and record vital signs and assess for adverse reactions 120 (+/−10 minutes) post radiotracer administration. Visit 3—Day after Phone Call • Record any adverse reactions.
For the secondary objective of effectiveness, the number of suspected PSMA-positive malignant lesions will be calculated in both the standard-of-care ^18F-Piflufolastat PET/CT and the experimental [^61Cu]Cu-NODAGA-PSMA I&T PET/CT. The percentage of patients with any suspected PSMA-positive malignant lesions will be determined for each radiotracer. To assess whether the distribution of the number of lesions was higher with ^18F-Piflufolastat PET/CT or [^61Cu]Cu-NODAGA-PSMA I&T, 1-sided Wilcoxon […] tests for paired data will be performed. To account for the small sample size, results with a P value of less than 0.1 will be considered statistically significant.

**Q.** What does the source list for `O=C([O-])CN1CCN(CC(=O)[O-])CCN([C@H](CCC(=O)N[C@H](Cc2ccc(O)c(I)c2)C(=O)N[C@H](Cc2ccccc2)C(=O)N[C@H](CCCCNC(=O)CCCCCCC(=O)NCCCC[C@H](NC(=O)N[C@@H](CCC(=O)O)C(=O)O)C(=O)O)C(=O)O)C(=O)O)CC1.[61Cu+2]` [[^61Cu]Cu-NODAGA-PSMA I&T]?
**A.** radiotracer accumulation on PET/CT (PSMA-expressing tumors): multifocal osseous (arrows) and hepatic (arrowheads) metastases; also recorded: Radiotracer accumulation was noted in multifocal osseous and hepatic metastases; Concordance ([1]; Subject 1): 100%; % difference from Pylarify results at 1 hour ([1]; Subject 1, 1 hour): (12%); New Lesions Detected with [^61Cu]Cu-NODAGA-PSMA I&T ([1]; Subject 1, 1 hour): 5; Tumor-to-Background Ratio with [^61Cu]Cu-NODAGA-PSMA I&T ([1]; Subject 1, 1 hour): 59.9; % difference from Pylarify results at 1 hour ([1]; Subject 1, 2 hour): (115%); New Lesions Detected with [^61Cu]Cu-NODAGA-PSMA I&T ([1]; Subject 1, 2 hour): 7; Tumor-to-Background Ratio with [^61Cu]Cu-NODAGA-PSMA I&T ([1]; Subject 1, 2 hour): 114.5; % difference from Pylarify results at 1 hour ([1]; Subject 1, 4 hour): (154%); New Lesions Detected with [^61Cu]Cu-NODAGA-PSMA I&T ([1]; Subject 1, 4 hour): 8; Tumor-to-Background Ratio with [^61Cu]Cu-NODAGA-PSMA I&T ([1]; Subject 1, 4 hour): 135.5; Concordance ([1]; Subject 2): 100%; % difference from Pylarify results at 1 hour ([1]; Subject 2, 1 hour): (37%); New Lesions Detected with [^61Cu]Cu-NODAGA-PSMA I&T ([1]; Subject 2, 1 hour): 0; Tumor-to-Background Ratio with [^61Cu]Cu-NODAGA-PSMA I&T ([1]; Subject 2, 1 hour): 5.3; % difference from Pylarify results at 1 hour ([1]; Subject 2, 2 hour): (−13%); New Lesions Detected with [^61Cu]Cu-NODAGA-PSMA I&T ([1]; Subject 2, 2 hour): 0; Tumor-to-Background Ratio with [^61Cu]Cu-NODAGA-PSMA I&T ([1]; Subject 2, 2 hour): 3.4; % difference from Pylarify results at 1 hour ([1]; Subject 2, 4 hour): (−43%); New Lesions Detected with [^61Cu]Cu-NODAGA-PSMA I&T ([1]; Subject 2, 4 hour): 0; Tumor-to-Background Ratio with [^61Cu]Cu-NODAGA-PSMA I&T ([1]; Subject 2, 4 hour): 2.2; Concordance ([1]; Subject 3): 100%; % difference from Pylarify results at 1 hour ([1]; Subject 3, 1 hour): (52%); New Lesions Detected with [^61Cu]Cu-NODAGA-PSMA I&T ([1]; Subject 3, 1 hour): 1; Tumor-to-Background Ratio with [^61Cu]Cu-NODAGA-PSMA I&T ([1]; Subject 3, 1 hour): 9.3; % difference from Pylarify results at 1 hour ([1]; Subject 3, 2 hour): (9%); New Lesions Detected with [^61Cu]Cu-NODAGA-PSMA I&T ([1]; Subject 3, 2 hour): 1; Tumor-to-Background Ratio with [^61Cu]Cu-NODAGA-PSMA I&T ([1]; Subject 3, 2 hour): 6.7; % difference from Pylarify results at 1 hour ([1]; Subject 3, 4 hour): (274%); New Lesions Detected with [^61Cu]Cu-NODAGA-PSMA I&T ([1]; Subject 3, 4 hour): 3; Tumor-to-Background Ratio with [^61Cu]Cu-NODAGA-PSMA I&T ([1]; Subject 3, 4 hour): 23.0; Concordance ([1]; Subject 4): 100%; % difference from Pylarify results at 1 hour ([1]; Subject 4, 1 hour): (64%); New Lesions Detected with [^61Cu]Cu-NODAGA-PSMA I&T ([1]; Subject 4, 1 hour): 0; Tumor-to-Background Ratio with [^61Cu]Cu-NODAGA-PSMA I&T ([1]; Subject 4, 1 hour): 126.2; % difference from Pylarify results at 1 hour ([1]; Subject 4, 2 hour): (110%); New Lesions Detected with [^61Cu]Cu-NODAGA-PSMA I&T ([1]; Subject 4, 2 hour): 2; Tumor-to-Background Ratio with [^61Cu]Cu-NODAGA-PSMA I&T ([1]; Subject 4, 2 hour): 161.4; % difference from Pylarify results at 1 hour ([1]; Subject 4, 4 hour): (98%); New Lesions Detected with [^61Cu]Cu-NODAGA-PSMA I&T ([1]; Subject 4, 4 hour): 10; Tumor-to-Background Ratio with [^61Cu]Cu-NODAGA-PSMA I&T ([1]; Subject 4, 4 hour): 152.8; Concordance ([1]; Subject 5): 100%; % difference from Pylarify results at 1 hour ([1]; Subject 5, 1 hour): (98%); New Lesions Detected with [^61Cu]Cu-NODAGA-PSMA I&T ([1]; Subject 5, 1 hour): 0; Tumor-to-Background Ratio with [^61Cu]Cu-NODAGA-PSMA I&T ([1]; Subject 5, 1 hour): 53.3; % difference from Pylarify results at 1 hour ([1]; Subject 5, 2 hour): (154%); New Lesions Detected with [^61Cu]Cu-NODAGA-PSMA I&T ([1]; Subject 5, 2 hour): 0; Tumor-to-Background Ratio with [^61Cu]Cu-NODAGA-PSMA I&T ([1]; Subject 5, 2 hour): 68.3; % difference from Pylarify results at 1 hour ([1]; Subject 5, 4 hour): (160%); New Lesions Detected with [^61Cu]Cu-NODAGA-PSMA I&T ([1]; Subject 5, 4 hour): 0; Tumor-to-Background Ratio with [^61Cu]Cu-NODAGA-PSMA I&T ([1]; Subject 5, 4 hour): 70.0; Concordance ([1]; Subject 6): 100%; % difference from Pylarify results at 1 hour ([1]; Subject 6, 1 hour): (60%); New Lesions Detected with [^61Cu]Cu-NODAGA-PSMA I&T ([1]; Subject 6, 1 hour): 0; Tumor-to-Background Ratio with [^61Cu]Cu-NODAGA-PSMA I&T ([1]; Subject 6, 1 hour): 11.3; % difference from Pylarify results at 1 hour ([1]; Subject 6, 2 hour): (126%); New Lesions Detected with [^61Cu]Cu-NODAGA-PSMA I&T ([1]; Subject 6, 2 hour): 0; Tumor-to-Background Ratio with [^61Cu]Cu-NODAGA-PSMA I&T ([1]; Subject 6, 2 hour): 16.0; % difference from Pylarify results at 1 hour ([1]; Subject 6, 4 hour): (230%); New Lesions Detected with [^61Cu]Cu-NODAGA-PSMA I&T ([1]; Subject 6, 4 hour): 0; Tumor-to-Background Ratio with [^61Cu]Cu-NODAGA-PSMA I&T ([1]; Subject 6, 4 hour): 23.3; Concordance ([1]; Subject 7): 100%; % difference from Pylarify results at 1 hour ([1]; Subject 7, 1 hour): (45%); New Lesions Detected with [^61Cu]Cu-NODAGA-PSMA I&T ([1]; Subject 7, 1 hour): 3; Tumor-to-Background Ratio with [^61Cu]Cu-NODAGA-PSMA I&T ([1]; Subject 7, 1 hour): 5.6; % difference from Pylarify results at 1 hour ([1]; Subject 7, 2 hour): (70%); New Lesions Detected with [^61Cu]Cu-NODAGA-PSMA I&T ([1]; Subject 7, 2 hour): 3; Tumor-to-Background Ratio with [^61Cu]Cu-NODAGA-PSMA I&T ([1]; Subject 7, 2 hour): 6.6; % difference from Pylarify results at 1 hour ([1]; Subject 7, 4 hour): (287%); New Lesions Detected with [^61Cu]Cu-NODAGA-PSMA I&T ([1]; Subject 7, 4 hour): 5; Tumor-to-Background Ratio with [^61Cu]Cu-NODAGA-PSMA I&T ([1]; Subject 7, 4 hour): 15.0; Concordance ([1]; Subject 8): 100%; % difference from Pylarify results at 1 hour ([1]; Subject 8, 1 hour): (−10%); New Lesions Detected with [^61Cu]Cu-NODAGA-PSMA I&T ([1]; Subject 8, 1 hour): 0; Tumor-to-Background Ratio with [^61Cu]Cu-NODAGA-PSMA I&T ([1]; Subject 8, 1 hour): 24.2; % difference from Pylarify results at 1 hour ([1]; Subject 8, 2 hour): (29%); New Lesions Detected with [^61Cu]Cu-NODAGA-PSMA I&T ([1]; Subject 8, 2 hour): 0; Tumor-to-Background Ratio with [^61Cu]Cu-NODAGA-PSMA I&T ([1]; Subject 8, 2 hour): 34.5; % difference from Pylarify results at 1 hour ([1]; Subject 8, 4 hour): (123%); New Lesions Detected with [^61Cu]Cu-NODAGA-PSMA I&T ([1]; Subject 8, 4 hour): 0; Tumor-to-Background Ratio with [^61Cu]Cu-NODAGA-PSMA I&T ([1]; Subject 8, 4 hour): 59.7; metastases visualized compared with Pylarify PET/CT ([1]; Subject #1): More osseous metastases were visualized; metastases visualized compared with Pylarify PET/CT ([1]; Subject #2): Same number of metastases were observed; pelvic nodal metastases seen on PET/CT ([1]; Subject #3, 4 hours): 5; metastases visualized compared with Pylarify PET/CT ([1]; Subject #4): More osseous metastases were observed; metastases visualized compared with Pylarify PET/CT ([1]; Subject #5): Equal number of osseous metastases were observed; metastases visualized compared with Pylarify PET/CT ([1]; Subject #6): One avid 0.4 cm left pelvic sidewall lymph node seen on both; metastases visualized compared with Pylarify PET/CT ([1]; Subject #7): More osseous metastases were detected; metastases visualized compared with Pylarify PET/CT ([1]; Subject #8): Solitary avid osseous metastasis were observed in both exams; detection rate of metastatic lesions compared with Pylarify ([1]; eight subjects): higher detection rate of metastatic lesions; higher tumor-to-background ratio than Pylarify, on average ([1]; eight subjects): 90%
